Assay results: ChEMBL document CHEMBL1201862, “PubChem BioAssay data set” (2004)
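1) Cells in 96-well plates. 2) Compound, 48 h, 5 concentrations. 3) Linear interpolation between surrounding doses. 4) Unreached endpoint = highest concentration. GI50 is the concentration that inhibits growth by half.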 Active and inactive are the calls of the source. No stated cut-off is given here; in the data, active = GI50 up to about 1.1 µM and inactive = higher.

Assays:
Assay in all cases: inhibition of tumour cell growth, NCI panel, 48 h
[1] = test system: M19-MEL
[2] = test system: Malme-3M
[3] = test system: OVCAR-3
[4] = test system: ACHN
[5] = test system: UACC-257
[6] = test system: RPMI-8226
[7] = test system: SF-539
[8] = test system: LXFL 529
[9] = test system: SNB-19
[10] = test system: RXF 631
[11] = test system: RXF 393
[12] = test system: UO-31
[13] = test system: SK-MEL-2
[14] = test system: NCI/ADR-RES
[15] = test system: M14
[16] = test system: OVCAR-4
[17] = test system: HL-60
[18] = test system: NCI-H226
[19] = test system: HCT-116
[20] = test system: NCI-H522
[21] = test system: NCI-H23
[22] = test system: KM12
[23] = test system: CAKI-1
[24] = test system: K562
[25] = test system: U-251
[26] = test system: HOP-18
[27] = test system: DMS-114
[28] = test system: HCT-15
[29] = test system: IGROV-1
[30] = test system: SK-OV-3
[31] = test system: MOLT-4
[32] = test system: A498
[33] = test system: SR
[34] = test system: HOP-92
[35] = test system: TK-10
[36] = test system: DMS-273
[37] = test system: DLD-1
[38] = test system: HCC 2998
[39] = test system: MCF7
[40] = test system: HOP-62
[41] = test system: HT-29
[42] = test system: SN12C
[43] = test system: SNB-78
[44] = test system: SNB-75
[45] = test system: NCI-H460
[46] = test system: SK-MEL-28
[47] = test system: SK-MEL-5
[48] = test system: COLO 205
[49] = test system: LOX IMVI
[50] = test system: SW-620
[51] = test system: 786-0
[52] = test system: A549
[53] = test system: UACC-62
[54] = test system: KM-20L2
[55] = test system: SF-295
[56] = test system: SF-268
[57] = test system: CCRF-CEM
[58] = test system: EKVX
[59] = test system: OVCAR-5
[60] = test system: DU-145
[61] = test system: XF498
[62] = test system: OVCAR-8
[63] = test system: PC-3

NCCCC(N)(C(=O)O)C(F)F (centres undefined) [EFLORNITHINE]
GI50 [1]: > 3450 µM (inactive) | GI50 [2]: > 5000 µM (inactive) | GI50 [3]: > 3940 µM (inactive) | GI50 [4]: > 100 µM (inactive) | GI50 [5]: > 5000 µM (inactive) | GI50 [6]: > 5000 µM (inactive) | GI50 [7]: > 5000 µM (inactive) | GI50 [8]: > 100 µM (inactive) | GI50 [9]: > 5000 µM (inactive) | GI50 [10]: > 100 µM (inactive) | GI50 [11]: > 5000 µM (inactive) | GI50 [12]: > 5000 µM (inactive) | GI50 [13]: > 5000 µM (inactive) | GI50 [14]: > 5000 µM (inactive) | GI50 [15]: > 100 µM (inactive) | GI50 [16]: > 5000 µM (inactive) | GI50 [17]: > 3910 µM (inactive) | GI50 [18]: > 5000 µM (inactive) | GI50 [19]: 815 µM (inactive) | GI50 [20]: > 5000 µM (inactive) | GI50 [21]: > 5000 µM (inactive) | GI50 [22]: > 5000 µM (inactive) | GI50 [23]: 1570 µM (inactive) | GI50 [24]: > 2880 µM (inactive) | GI50 [25]: > 5000 µM (inactive) | GI50 [26]: > 50 µM (inactive) | GI50 [27]: > 5000 µM (inactive) | GI50 [28]: 769 µM | GI50 [29]: > 5000 µM (inactive) | GI50 [30]: > 5000 µM (inactive) | GI50 [31]: 3030 µM (inactive) | GI50 [32]: > 5000 µM (inactive) | GI50 [33]: > 100 µM (inactive) | GI50 [34]: > 1890 µM (inactive) | GI50 [35]: > 100 µM (inactive) | GI50 [36]: 1220 µM (inactive) | GI50 [37]: > 3160 µM (inactive) | GI50 [38]: > 5000 µM (inactive) | GI50 [39]: > 5000 µM (inactive) | GI50 [40]: > 5000 µM (inactive) | GI50 [41]: > 2790 µM (inactive) | GI50 [42]: > 1980 µM (inactive) | GI50 [43]: > 5000 µM (inactive) | GI50 [44]: 2340 µM (inactive) | GI50 [45]: 933 µM (inactive) | GI50 [46]: > 5000 µM (inactive) | GI50 [47]: > 5000 µM (inactive) | GI50 [48]: > 5000 µM (inactive) | GI50 [49]: 678 µM (inactive) | GI50 [50]: > 5000 µM (inactive) | GI50 [51]: > 100 µM (inactive) | GI50 [52]: > 5000 µM (inactive) | GI50 [53]: > 5000 µM (inactive) | GI50 [54]: > 5000 µM (inactive) | GI50 [55]: 2270 µM (inactive) | GI50 [56]: > 5000 µM (inactive) | GI50 [57]: > 1580 µM (inactive)

O=CN/C=C/c1cc(O)ccc1O [ERBSTATIN]
GI50 [1]: 13.3 µM (inactive) | GI50 [58]: 18.6 µM (inactive) | GI50 [2]: 17.9 µM (inactive) | GI50 [3]: 9.35 µM (inactive) | GI50 [4]: 14.8 µM (inactive) | GI50 [5]: 13.5 µM (inactive) | GI50 [6]: 26.3 µM (inactive) | GI50 [7]: 22.7 µM (inactive) | GI50 [8]: 11.6 µM (inactive) | GI50 [9]: > 66.7 µM (inactive) | GI50 [11]: 13 µM (inactive) | GI50 [12]: 29.7 µM (inactive) | GI50 [13]: 29.3 µM (inactive) | GI50 [14]: 18.1 µM (inactive) | GI50 [59]: > 85.7 µM (inactive) | GI50 [15]: 14.9 µM (inactive) | GI50 [16]: 17.8 µM (inactive) | GI50 [17]: 5.14 µM (inactive) | GI50 [18]: 44 µM (inactive) | GI50 [19]: 15.7 µM (inactive) | GI50 [20]: 4.6 µM (inactive) | GI50 [21]: 18.8 µM (inactive) | GI50 [60]: 30.1 µM (inactive) | GI50 [22]: > 89.3 µM (inactive) | GI50 [23]: 12.4 µM (inactive) | GI50 [24]: 14.8 µM (inactive) | GI50 [25]: 42.3 µM (inactive) | GI50 [26]: > 40.6 µM (inactive) | GI50 [27]: 17.6 µM (inactive) | GI50 [28]: 13.3 µM | GI50 [29]: 26.2 µM (inactive) | GI50 [30]: > 62.4 µM (inactive) | GI50 [31]: 22.9 µM (inactive) | GI50 [32]: 59.7 µM (inactive) | GI50 [33]: 4.39 µM (inactive) | GI50 [34]: 11.6 µM (inactive) | GI50 [35]: 17 µM (inactive) | GI50 [36]: 77.1 µM (inactive) | GI50 [37]: 16 µM (inactive) | GI50 [61]: 19.8 µM (inactive) | GI50 [62]: 17.8 µM (inactive) | GI50 [38]: > 100 µM (inactive) | GI50 [39]: 11.3 µM (inactive) | GI50 [40]: > 74.1 µM (inactive) | GI50 [41]: 22.2 µM (inactive) | GI50 [42]: 16.7 µM (inactive) | GI50 [43]: 19 µM (inactive) | GI50 [44]: 62.4 µM (inactive) | GI50 [45]: 56.2 µM (inactive) | GI50 [46]: 23.4 µM (inactive) | GI50 [47]: 18.7 µM (inactive) | GI50 [48]: 11.9 µM (inactive) | GI50 [49]: 14 µM (inactive) | GI50 [50]: 8.75 µM (inactive) | GI50 [63]: > 100 µM (inactive) | GI50 [51]: 14 µM (inactive) | GI50 [52]: > 65.6 µM (inactive) | GI50 [53]: 13.7 µM (inactive) | GI50 [54]: 52.2 µM (inactive) | GI50 [55]: 58.1 µM (inactive) | GI50 [56]: 17.2 µM (inactive) | GI50 [57]: 4.11 µM (inactive)
